Experiment [1] deals with T1, c-Src kinase (human) (Homo sapiens, UniProt P12931).
T1 construct: purchased Upstate Biotechnology, Lake Placid, N.Y
In words: c-Src Kinase Assay. Format: biochemical. The note with it: for IC50: read-out: c-Src IC50 (in parentheses); for inhibition at 2 µM / c-Src % Inhibition: test concentration of 2 μM, multiple values are separate assay results; for c-Src % Inhibition: 2 µM. In a few lines: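 Inhibition was read as 33P incorporation, counted on P30 filtermats, after a 40 min, 30° C reaction. Human c-Src acted on 100 μM Cdc2 peptide with 5 μM ATP (final), pH 7.0 MOPS/MgCl2. Values are percent inhibition at 2 μM compound, or IC50 where determined.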

In experiment [2] the target is T2, HER-2 (Homo sapiens, UniProt P04626).
T2 construct: His6 with thrombin site (N); purchased Proqinase (Freiburg, Germany)
T2 sequence (P04626 679-1255): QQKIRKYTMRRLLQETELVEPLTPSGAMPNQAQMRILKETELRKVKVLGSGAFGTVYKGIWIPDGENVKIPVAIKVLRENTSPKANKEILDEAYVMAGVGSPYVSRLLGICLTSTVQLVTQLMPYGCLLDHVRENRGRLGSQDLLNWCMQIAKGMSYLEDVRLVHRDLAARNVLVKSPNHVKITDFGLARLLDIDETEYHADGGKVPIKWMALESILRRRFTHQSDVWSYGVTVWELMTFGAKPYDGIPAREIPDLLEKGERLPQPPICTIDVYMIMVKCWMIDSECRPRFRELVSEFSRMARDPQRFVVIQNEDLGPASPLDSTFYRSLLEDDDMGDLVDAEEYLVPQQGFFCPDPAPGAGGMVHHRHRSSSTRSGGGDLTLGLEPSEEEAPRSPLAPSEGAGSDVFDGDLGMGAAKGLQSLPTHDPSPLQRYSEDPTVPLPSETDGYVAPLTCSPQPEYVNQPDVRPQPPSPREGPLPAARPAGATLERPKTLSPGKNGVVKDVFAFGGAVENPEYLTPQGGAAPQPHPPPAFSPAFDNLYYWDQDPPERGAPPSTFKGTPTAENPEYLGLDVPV
In words: HER-2 Kinase Assay. The settings on record: for inhibition at 1 µM: test concentration of 1 μM; for IC50: value in parentheses. It counts as biochemical. An outline of the steps: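 GST/HIS6-tagged HER-2 aa 679–1255 kinase with biotinylated polyGluTyr (1.5 ng/μL), 1 μM ATP plus γ-33P-ATP, Mg2+/Mn2+, DTT, Hepes pH 7.5; 1 h at 30 °C. Substrate phosphorylation captured on streptavidin scintillation plates after EDTA/PBS washes; values are % inhibition at 1 μM or IC50.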

The test system of experiment [3] is HeLa cervical adenocarcinoma. Nature of the experiment: Cell Proliferation Inhibition Assay, Hela (C14 method). The settings on record: Homo sapiens, Table 7. It counts as cell-based. The source says: (§1) Cell Proliferation Inhibition Assay
(§2) The ability of a test compound to inhibit unregulated cell proliferation may be determined by measuring incorporation of ^14C-labelled thymidine into newly synthesized DNA within cell lines derived from carcinomas originating from several tissues. Accordingly, the effect of a test compound on proliferation of cells with a variety of phenotypes may be determined.
(§3) Carcinoma cell lines used include the HeLa cervical adenocarcinoma from the American Type Culture Collection (ATCC Cat. #CCL2), A375 malignant melanoma (ATCC Cat. #CRL-1619), HCT-116 colon carcinoma (ATCC Cat. #CCL-247), SKBR3 breast carcinoma (ATCC Cat. #HTB-30) and BT474 breast carcinoma (ATCC Cat. #HTB-20).
(§4) The carcinoma cells were trypsinized and counted. The cells (3000-8000 count) were added to each well of a 96-well CytoStar tissue culture treated scintillating microplate (Amersham #RPNQ0160) in complete medium (100 μL) and the plate was then incubated in complete medium for 24 hrs at 37° C. in an inert atmosphere containing 5% CO2.
(§5) Test compound (1 μL) in 100% DMSO was added to the plate test-wells with DMSO only added to control-wells. The plate was incubated in complete medium for a second 24 hr period at 37° C. in an atmosphere containing 5% CO2.
(§6) An aliquot of a solution of Methyl ^14C-thymidine (56 mC/mmol) (NEN #NEC568 or AMersham #CFA532) and complete medium (20 uL to provide 0.2 μCl/well) was then added to each well and the plate was incubated for a third 24 hr period at 37° C. in an atmosphere containing 5% CO2.
(§7) The plate contents were then discarded, the plate washed twice with PBS (200 μL) and then PBS (200 μL) was added to each well. The plate was sealed and the degree of methyl ^14C-thymidine incorporation was quantified on a Packard Top Count.
(§8) Cell proliferation of the Hela cell line was measured using the ATP-Lite method as described in the ATP Lite Kit (Perkin-Elmer Kit Number 6106941) or the C^14 method as described above. Cell proliferation of the other cell lines was measured using the C^14 method.

The subject of experiment [4] is A375 malignant melanoma. Nature of the experiment: Cell Proliferation Inhibition Assay, A375 (14C-thymidine). It counts as cell-based. The settings on record: Homo sapiens, A-375.
Description: as §1, §2, §3, §4, §5, §6, §7, §8

Experiment [5] concerns HCT-116 colon carcinoma. In words: Cell Proliferation Inhibition Assay, HCT-116 (14C-thymidine). Format: cell-based. The note with it: Homo sapiens, HCT-116 cell proliferation.
Description: as §1, §2, §3, §4, §5, §6, §7, §8

The term IC50 denotes the concentration that inhibits the measured activity by half. The term inhibition denotes the change of the read-out against control, counted positive when it falls.

T1 sequence (P12931 whole entry): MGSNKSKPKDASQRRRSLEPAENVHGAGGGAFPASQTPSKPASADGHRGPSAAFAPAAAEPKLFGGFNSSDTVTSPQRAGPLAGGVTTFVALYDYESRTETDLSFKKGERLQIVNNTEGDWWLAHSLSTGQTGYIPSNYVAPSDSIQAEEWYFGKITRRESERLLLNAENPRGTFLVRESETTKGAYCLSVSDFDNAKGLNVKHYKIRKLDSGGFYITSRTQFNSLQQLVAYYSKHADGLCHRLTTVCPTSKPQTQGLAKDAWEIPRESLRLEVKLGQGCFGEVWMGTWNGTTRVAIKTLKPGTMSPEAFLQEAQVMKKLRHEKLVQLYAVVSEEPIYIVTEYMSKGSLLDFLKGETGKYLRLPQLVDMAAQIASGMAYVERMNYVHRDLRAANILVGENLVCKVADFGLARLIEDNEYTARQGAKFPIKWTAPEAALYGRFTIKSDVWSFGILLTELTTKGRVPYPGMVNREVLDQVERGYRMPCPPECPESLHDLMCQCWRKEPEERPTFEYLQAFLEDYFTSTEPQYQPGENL

Consider `O=C(Nc1ccc(CN2CCOCC2)cc1)c1sc2ncnc3c2c1NC(=O)N3c1cccc(Br)c1` [Cpd 36, 5-(3-bromo-phenyl)-4-oxo-4,5-dihydro-3H-1-thia-3,5,6,8-tetraaza-acenaphthylene-2-carboxylic acid (4-morpholin-4-ylmethyl-phenyl)-amide], for which the IC50 in experiment [1] was more than 20 µM; in experiment [2], 0.295 µM; in experiment [3] it was not below 10 µM; in experiment [4], 10 µM; in experiment [5] it was 67.9 µM. The inhibition at 1 µM in experiment [2] is 60%.

In the case of `O=C(O)c1sc2ncnc3c2c1NC(=O)N3c1ccc(OCc2ccccn2)c(Cl)c1` [Cpd 38, 5-[3-chloro-4-(pyridin-2-ylmethoxy)-phenyl]-4-oxo-4,5-dihydro-3H-1-thia-3,5,6,8-tetraaza-acenaphthylene-2-carboxylic acid], the inhibition at 2 µM in experiment [1] is 7%. For the same compound, the inhibition at 1 µM in experiment [2] was -7%. For the same compound, the values for the IC50 in experiment [3], in experiment [4] and in experiment [5] were not below 100 µM, 100 µM and 100 µM, respectively.

With `COc1ccc(NC(=O)c2sc3ncnc4c3c2NC(=O)N4c2ccc(OCc3ccccn3)c(Cl)c2)cc1OC` [Cpd 48, 5-[3-chloro-4-(pyridin-2-ylmethoxy)-phenyl]-4-oxo-4,5-dihydro-3H-1-thia-3,5,6,8-tetraaza-acenaphthylene-2-carboxylic acid (3,4-dimethoxy-phenyl)-amide], the inhibition at 2 µM in experiment [1] amounted to 7%. Further, the inhibition at 1 µM in experiment [2] was 45%. The values for the IC50 in experiment [3], in experiment [4] and in experiment [5] were not below 10 µM, 17.2 µM and 30.4 µM, respectively.

On to `O=C(Nc1ccc(CN2CCOCC2)cc1)c1sc2ncnc3c2c1NC(=O)N3c1ccc(OCc2ccccn2)c(Cl)c1` [Cpd 52, 5-[3-chloro-4-(pyridin-2-ylmethoxy)-phenyl]-4-oxo-4,5-dihydro-3H-1-thia-3,5,6,8-tetraaza-acenaphthylene-2-carboxylic acid (4-morpholin-4-ylmethyl-phenyl)-amide], for which the inhibition at 2 µM in experiment [1] stood at 1%. Moreover, the inhibition at 1 µM in experiment [2] stood at 95%. The IC50 was 0.246 µM in experiment [2], not below 100 µM in experiment [3], 100 µM in experiment [4] and 100 µM in experiment [5].

Regarding `O=C(O)c1sc2ncnc3c2c1NC(=O)N3c1ccc2c(ccn2Cc2cccc(F)c2)c1` [Cpd 77, 5-[1-(3-fluoro-benzyl)-1H-indol-5-yl]-4-oxo-4,5-dihydro-3H-1-thia-3,5,6,8-tetraaza-acenaphthylene-2-carboxylic acid], the IC50 is more than 200 µM in experiment [1]; 1.37 µM in experiment [2]; not below 100 µM in experiment [3]; 100 µM in experiment [4]; 100 µM in experiment [5]. Moreover, the inhibition at 2 µM in experiment [1] amounted to 44%.

On to `CCOC(=O)c1sc2ncnc3c2c1NC(=O)N3c1ccc2c(cnn2Cc2cccc(F)c2)c1` [Cpd 78, 5-[1-(3-fluoro-benzyl)-1H-indazol-5-yl]-4-oxo-4,5-dihydro-3H-1-thia-3,5,6,8-tetraaza-acenaphthylene-2-carboxylic acid ethyl ester], for which the IC50 in experiment [1] is more than 200 µM; in experiment [2], more than 100 µM; in experiment [3], not below 100 µM; in experiment [4] it was 100 µM; in experiment [5] it was 100 µM.

As for `O=C(O)c1sc2ncnc3c2c1NC(=O)N3c1ccc2c(cnn2Cc2cccc(F)c2)c1` [Cpd 79, 5-[1-(3-fluoro-benzyl)-1H-indazol-5-yl]-4-oxo-4,5-dihydro-3H-1-thia-3,5,6,8-tetraaza-acenaphthylene-2-carboxylic acid], the IC50 was more than 200 µM in experiment [1]; more than 10 µM in experiment [2]; not below 100 µM in experiment [3]; 100 µM in experiment [4]; 100 µM in experiment [5]. The inhibition at 2 µM in experiment [1] was -17%.

For `O=C(Nc1ccc(CN2CCCCC2)cc1)c1sc2ncnc3c2c1NC(=O)N3c1ccc2c(cnn2Cc2cccc(F)c2)c1` [Cpd 80, 5-[1-(3-fluoro-benzyl)-1H-indazol-5-yl]-4-oxo-4,5-dihydro-3H-1-thia-3,5,6,8-tetraaza-acenaphthylene-2-carboxylic acid (4-piperidin-1-ylmethyl-phenyl)-amide], the IC50 in experiment [1] was more than 200 µM; in experiment [2], 0.121 µM; in experiment [3], 5.14 µM; in experiment [4] it was 10.1 µM; in experiment [5], 14 µM.

In the case of `O=C(Nc1ccc(CN2CCCCC2)cc1)c1sc2ncnc3c2c1NC(=O)N3c1ccc2c(ccn2Cc2cccc(F)c2)c1` [Cpd 87, 5-[1-(3-fluoro-benzyl)-1H-indol-5-yl]-4-oxo-4,5-dihydro-3H-1-thia-3,5,6,8-tetraaza-acenaphthylene-2-carboxylic acid (4-piperidin-1-ylmethyl-phenyl)-amide], the IC50 was more than 200 µM in experiment [1]; 0.15 µM in experiment [2]; 3.19 µM in experiment [3]; 6.79 µM in experiment [4]; 3.69 µM in experiment [5].

For the compound `CC(C)(C)OC(=O)N1CCC(NC(=O)c2sc3ncnc4c3c2NC(=O)N4c2ccc3c(ccn3Cc3cccc(F)c3)c2)CC1` [Cpd 91, 4-({5-[1-(3-fluoro-benzyl)-1H-indol-5-yl]-4-oxo-4,5-dihydro-3H-1-thia-3,5,6,8-tetraaza-acenaphthylene-2-carbonyl}-amino)-piperidine-1-carboxylic acid tert-butyl ester], the inhibition at 2 µM in experiment [1] is -37%. Further, the IC50 was 2.19 µM in experiment [2], 1 µM in experiment [3], 10 µM in experiment [4] and 10 µM in experiment [5].

Regarding `CN1CCC(NC(=O)c2sc3ncnc4c3c2NC(=O)N4c2ccc3c(ccn3Cc3cccc(F)c3)c2)CC1` [Cpd 92, 5-[1-(3-fluoro-benzyl)-1H-indol-5-yl]-4-oxo-4,5-dihydro-3H-1-thia-3,5,6,8-tetraaza-acenaphthylene-2-carboxylic acid (1-methyl-piperidin-4-yl)-amide], the IC50 in experiment [1] is 0.431 µM; in experiment [2] it was 0.36 µM; in experiment [3] it was 4.3 µM; in experiment [4] it was 4.89 µM; in experiment [5], 4.36 µM. Further, in experiment [1], the inhibition at 2 µM stood at 65%. Further, the “c-Src % Inhibition” value in experiment [1] is 45%.

As for `CCOC(=O)c1sc2ncnc3c2c1NC(=O)N3c1ccc(Oc2ccc(F)cc2)cc1` [Cpd 101, 5-[4-(4-fluoro-phenoxy)-phenyl]-4-oxo-4,5-dihydro-3H-1-thia-3,5,6,8-tetraaza-acenaphthylene-2-carboxylic acid ethyl ester], the IC50 in experiment [2] is more than 100 µM; in experiment [3], not below 100 µM; in experiment [4], 100 µM; in experiment [5], 100 µM.

For the compound `O=C(Nc1ccc(CN2CCOCC2)cc1)c1sc2ncnc3c2c1NC(=O)N3c1c(Cl)cccc1Cl` [Cpd 104, 5-(2,6-dichloro-phenyl)-4-oxo-4,5-dihydro-3H-1-thia-3,5,6,8-tetraaza-acenaphthylene-2-carboxylic acid (4-morpholin-4-ylmethyl-phenyl)-amide], in experiment [1], the IC50 is 1.84 µM, the inhibition at 2 µM was 55% and the “c-Src % Inhibition” value is recorded as 60%. The IC50 in experiment [2] was 7.07 µM.

Turning to `O=C(Nc1ccc(CN2CCOCC2)cc1)c1sc2ncnc3c2c1NC(=O)N3c1ccc(Oc2ccccc2)c(F)c1` [Cpd 113, 5-(3-fluoro-4-phenoxy-phenyl)-4-oxo-4,5-dihydro-3H-1-thia-3,5,6,8-tetraaza-acenaphthylene-2-carboxylic acid (4-morpholin-4-ylmethyl-phenyl)-amide], in experiment [1], the inhibition at 2 µM turned out to be 68% and the “c-Src % Inhibition” value came to 54%. In experiment [2], the inhibition at 1 µM was found to be 83% and the IC50 stood at 0.089 µM.

For the compound `O=C(Nc1ccc(CN2CCOCC2)cc1)c1sc2ncnc3c2c1NC(=O)N3c1ccc(N2CCOCC2)cc1` [Cpd 123, 5-(4-morpholin-4-yl-phenyl)-4-oxo-4,5-dihydro-3H-1-thia-3,5,6,8-tetraaza-acenaphthylene-2-carboxylic acid (4-morpholin-4-ylmethyl-phenyl)-amide], in experiment [1], the IC50 turned out to be 0.545 µM and the inhibition at 2 µM was 77%. The IC50 in experiment [2] was more than 100 µM.

(Values after US7579356B2, “Thia-tetraazaacenaphthylene kinase inhibitors” (Janssen Pharmaceutica NV, priority 2005, dated 2009).)
